# Assay results: EP0727207A1, “The pharmacological use of certain cystine derivatives” (priority 1990, dated 1991)
# System: Balb/c mice
# Assay: delayed type hypersensitivity (DTH) reaction in the mouse ear, OXA-sensitized mice
# Assay type: in vivo
# Conditions: for Diff. Tt24-Tt0: ear thickness 24 hours after challenge; for Diff. Tt24-Tt0 / Diff Tt48-Tt0 / Diff Tt24-Tt0: mean; for Diff Tt48-Tt0: ear thickness 48 hours after challenge; for Diff Tt24-Tt0: L-forms
# Text: The property of the compounds diNAC, diBUT, diVAL, diCAP, diMeNAC, diEtNAC and diMeVAL to stimulate immune responses is illustrated by their efficacy in a model of the delayed type hypersensitivity (DTH) reaction in the mouse.
# Both male and female Balb/c mice obtained from Bomholtsgaard (Denmark) and Charlie Rivers (England), were used at the weight of 18-20 gram. 4-ethoxymethylene-2-phenyloxazolone (OXA) was purchased from BDH (England) and served as an antigen in this test.
# The mice were sensitized, Day 0, by epicutaneous application of 150 µl absolute ethanol-acetone (3:1) solution containing 3% OXA on the shaved thorax and abdomen. Treatment with the L-form of diNAC, diMeNAC, diEtNAC, diMeVAL, or vehicle (phosphate buffer, pH 7.0) was initiated by oral feeding immediately after sensitization and continued once daily to Day 6. […] after the sensitization both ears of all mice were challenged on both sides by topical application of 20 µl 1% OXA dissolved in peanut oil. Ear thickness was measured prior to and 24 or 48 hours after challenge using an Oditest spring calliper. Challenges and measurements were performed under light pentobarbital anasthesia. The intensity of the DTH reactions was expressed according to the formula: Tt24/48-Tt0 µm units, where t0, t24 and t48 represent the ear thickness before and 24 or 48 hours after challenge, respectively, in an individual […]. The results were expressed as the mean +/-S.E.M. The level of significance between means of the groups was obtained by Student's two-tailed t-test. Tables 1 and 2 show the results from 24 and 48 hours measurements, respectively, from a representative experiment with the L-form of diNAC. […]
# [1] = 0.03 µmol/kg oral once daily Day 0 to Day 6
# [2] = 0.30 µmol/kg oral once daily Day 0 to Day 6
# [3] = 3.0 µmol/kg oral once daily Day 0 to Day 6
# [4] = 30.0 µmol/kg oral once daily Day 0 to Day 6
# [5] = Table 3, 24 h after challenge, 0.03 µmol/kg oral
# [6] = Table 3, 24 h after challenge, 3.0 µmol/kg oral
# [7] = Table 3, 48 h section, 0.03 µmol/kg oral
# [8] = Table 3, 48 h section, 3.0 µmol/kg oral
structure (smiles),measurement,setting,value
"CC(=O)N[C@@H](CSSC[C@H](NC(C)=O)C(=O)O)C(=O)O [L-diNAC, N,N'-diacetyl-L-cystine]",Diff. Tt24-Tt0,[1],13.75 µm units
same,Diff. Tt24-Tt0,[2],15.70 µm units
same,Diff. Tt24-Tt0,[3],18.30 µm units
same,Diff. Tt24-Tt0,[4],20.67 µm units
same,Diff Tt48-Tt0,[1],11.65 µm units
same,Diff Tt48-Tt0,[2],12.65 µm units
same,Diff Tt48-Tt0,[3],14.95 µm units
same,Diff Tt48-Tt0,[4],13.63 µm units
same,ear thickness after oral administration,"result in words, 24 and 48 hours after challenge, oral",significant increase of the ear thickness in a concentration-response manner
"CCCC(=O)N[C@@H](CSSC[C@H](NC(=O)CCC)C(=O)O)C(=O)O [diBUT, N,N' - dibutyrylcystine]",immunostimulating effect in the DTH reaction in the mouse ear,result in words,highly potent and efficient immunostimulating agents
"CCCCCCCC(=O)N[C@@H](CSSC[C@H](NC(=O)CCCCCCC)C(=O)O)C(=O)O [diCAP, N,N'-dicaprylylcystine]",immunostimulating effect in the DTH reaction in the mouse ear,result in words,highly potent and efficient immunostimulating agents
"CCOC(=O)[C@H](CSSC[C@H](NC(C)=O)C(=O)OCC)NC(C)=O [diEtNAC, N,N'-diacetylcystine diethyl ester]",Diff Tt24-Tt0,[5],11.75 µm units
same,Diff Tt24-Tt0,[6],13.05 µm units
same,Diff Tt24-Tt0,[7],13.15 µm units
same,Diff Tt24-Tt0,[8],13.20 µm units
same,immunostimulating effect in the DTH reaction in the mouse ear,result in words,highly potent and efficient immunostimulating agents
"COC(=O)[C@H](CSSC[C@H](NC(C)=O)C(=O)OC)NC(C)=O [diMeNAC, N,N'-diacetylcystine dimethyl ester]",Diff Tt24-Tt0,[5],18.00 µm units
same,Diff Tt24-Tt0,[6],12.55 µm units
same,Diff Tt24-Tt0,[7],12.85 µm units
same,Diff Tt24-Tt0,[8],13.35 µm units
same,immunostimulating effect in the DTH reaction in the mouse ear,result in words,highly potent and efficient immunostimulating agents
"COC(=O)[C@H](CSSC[C@H](NC(=O)CC(C)C)C(=O)OC)NC(=O)CC(C)C [diMeVAL, N,N'-diisovalerylcystine dimethyl ester]",immunostimulating effect in the DTH reaction in the mouse ear,result in words,highly potent and efficient immunostimulating agents
"CC(=O)N[C@@H](CSSC[C@H](NC(C)=O)C(=O)O)C(=O)O [diNAC, N,N'-diacetylcystine]",immunostimulating effect in the DTH reaction in the mouse ear,result in words,highly potent and efficient immunostimulating agents
"CC(C)CC(=O)N[C@@H](CSSC[C@H](NC(=O)CC(C)C)C(=O)O)C(=O)O [diVAL, N,N'-diisovalerylcystine]",immunostimulating effect in the DTH reaction in the mouse ear,result in words,highly potent and efficient immunostimulating agents
